Experimental data reported in patent US10675275B2, “Prophylactic and/or therapeutic agent for fibromyalgia” (ONO PHARMACEUTICAL CO., LTD., priority 2015, dated 2020).
Counter-ions that a name gives are not always drawn.

Tested on: rat somatic hyperalgesia model
Assay: Efficacy in a rat somatic hyperalgesia model (acid saline, Randall-Selitto pain threshold)
Format: in vivo
Settings: SD male rats, right hind paw (non-challenged side), oral
Protocol: SD male rats (Charles River Laboratories Japan, Inc., 5 weeks old upon usage) were used. Under isoflurane anaesthesia, rats were intramuscularly administered with 100 μL of acidic saline of pH 4.0 in the left gastrocnemius. After 5 days of administration, rats again received 100 μL of acid saline in the left gastrocnemius. In the normal group, rats were intramuscularly administered with 100 μL of saline twice in total with 5 days apart in the left gastrocnemius (see Muscle Nerve, vol. 24, pp. 37-46, 2001).
The pain threshold was measured on a Randall-Selitto pressure analgesy-meter (Ugo Basile). Briefly, rats were securely fixed and uniformly and continuously increasing pressure was applied to the hind paws. […] For each of the left and right hind paws, tests were carried out three times at each evaluation point and the values were averaged to obtain the pain threshold.
For the normal group, rats were arbitrarily selected from those showing the pain threshold on the day before the first administration of acid saline of 140 g or more for both left and right hind paws. After being divided into groups, administration of the test compound (the present compound (the compound described in Example 38 of PTL 1), comparative compound A (the compound described in Example 38(5) of PTL 1), comparative compound B (the compound described in Example 41(2) of PTL 1), comparative compound C (1-(2-chlorophenyl)-N-methyl-N-(1-methylpropyl)isoquinoline-3-carboxamide (PK11195), CAS registry No.: 85532-75-8), a control substance (duloxetine hydrochloride, pregabalin) or a vehicle (0.5 w/v % methylcellulose 400 cP solution)) was started on the same day. On day 1 and day 7 of administration of each drug solution, the pain threshold on left and right hind paws was measured in a blind manner 2 hours after the first administration. Duloxetine hydrochloride was orally administered once a day and other agents were orally administered twice a day.

SMILES: CCC(C)N(C)C(=O)c1cc2ccccc2c(-c2ccccc2Cl)n1 (centres unmarked) [comparative compound C, 1-(2-chlorophenyl)-N-methyl-N-(1-methylpropyl)isoquinoline-3-carboxamide]
- pain threshold (efficacy for the pain threshold decreased in the control group) (day 7, before and 2 hours after administration, 1 mg/kg, twice a day): did not show the efficacy

SMILES: CNCC[C@H](Oc1cccc2ccccc12)c1cccs1 [duloxetine hydrochloride]
- pain threshold (suppression of the decrease caused by acid saline) (day 7, before and 2 hours after administration, 30 mg/kg, once a day): suppressed this decrease of the pain threshold

SMILES: CC(C)C[C@H](CN)CC(=O)O [pregabalin]
- pain threshold (suppression of the decrease caused by acid saline) (day 7, before and 2 hours after administration, 20 mg/kg, twice a day): suppressed this decrease of the pain threshold

SMILES: COc1cc(Cl)ccc1[C@H]1c2[nH]c3cccc(F)c3c2C2(CC2)CN1C(C)=O [the present compound, (1S)-2-acetyl-1-(4-chloro-2-methoxyphenyl)-5-fluoro-1,2,3,9-tetrahydrospiro[β-carboline-4,1′-cyclopropane]]
- pain threshold (suppression of the decrease caused by acid saline) (day 7 of administration, before and 2 hours after administration, 0.1, 1 or 10 mg/kg, twice a day): significant suppression
- pain threshold (suppression of the decrease caused by acid saline) (day 7 of administration, before and 2 hours after administration, 0.1, 1 or 10 mg/kg, twice a day, listed as The present compound): suppressed this decrease of the pain threshold
